# From US12329738B2, “Urolithin A and a composition containing same for external use in inflammations of various etiologies” (WARSZAWSKI UNIWERSYTET MEDYCZNY, priority 2018, dated 2025)
# Tests used:
# [1] = tested on: Wistar rats (DNCB-induced atopic dermatitis); experiment: Ear thickness (edema) in DNCB-induced atopic dermatitis rat model; format: in vivo
# Protocol: It is similar to the indications for use of hydrocortisone, which was used as a positive control in the study. Urolitin A was obtained by synthesis according to Bialonska et al. (Bialonska et al., 2009) or purchased from Sigma-Aldrich. The ointment containing urolithin A was prepared by emulsifying the weighed substance into a solid vehicle (white petrolatum) using an unguator. Wistar rats aged 5-6 weeks (at the start of the experiment) kept under standard conditions with free access to feed and water were used for the tests. The animals were divided into 5 groups, 8 individuals in each group. To prepare 2,4-dinitrochlorobenzene (DNCB) composition inducing inflammation, DNCB was dissolved in 70% ethanol to a final concentration of 1.5% (w/v). Therapeutic composition was an ointment based on white petrolatum with 0.2% or 1.0% urolithin A added. The control ointment was white petrolatum without addition of urolithin A. The induction of chronic atopic dermatitis involved local 9-fold infiltration with 60 μl 1.5% 2,4-dinitrochlorobenzene (DNCB) on each (external and internal) surface of the right ear over 3 weeks (3 times a week). Negative control was the right ear of rats without induction inflammation. Treatment of atopic dermatitis with 0.2% or 1.0% urolithin composition and white petrolatum (control) or 1.0% hydrocortisone composition (positive control) was started eight days after sensitization—one day before the fourth application of DNCB. Ointments with appropriate for given group drug added were applied in a total volume of about 20 μl to each ear surface one day before and 6 hours after each DNCB application (for a period of 3 weeks). The negative control group consisted of rats without induced inflammation and treated with white petrolatum in a regimen analogous to the composition of urolithin A or hydrocortisone. Ear thickness was assessed using an electronic mini caliper the day before inflammation was induced (day 0) and then on days 4 and 8 prior to treatment and on days 4, 8, 12, 16, […] of therapy with urolithin A composition (on days 12, 16, 20, 24, 28 and 32 after inflammation inducing, respectively). The experimental results obtained were analyzed using the Statistica 7.1 program (StatSoft, Inc., Tulsa, OK, USA) and presented as mean values±SE. Statistical significance was set at P≤0.05. The results with established normal distribution in the D'Agostin and Pearson test were prepared using two- or three-factor analysis of variance (ANOVA). Parametric post-hoc analysis for individual time points was performed using the Bonferroni test.
# [2] = tested on: S100A8/A9 protein (calprotectin); experiment: Extracellular S100A8/A9 level, LPS-stimulated human neutrophils (ELISA); format: cell-based; settings: 40, 10 and 1 μM; LPS 10 ng/mL; 30 min; concentration dependent
# Protocol: In order to comparatively study the biological activity of urolithins and their derivatives, these compounds were obtained by chemical synthesis, and then their activity against release of calprotectin by stimulated neutrophils was examined. Peripheral blood was collected from healthy donors (aged 20-35) at the Regional Blood Donation and Blood Treatment Center (Regionalne Centrum Krwiodawstwa i Krwiolecznictwa) in Warsaw. The study was conducted in accordance with the principles of the Declaration of Helsinki. […] Neutrophils were isolated using a standard method (Piwowarski et al., 2014a). Neutrophils were then suspended in HBSS. 50 μL of urolithin A, urolithin B or iso-urolitin A at the appropriate concentration (to achieve final concentrations of 40, 10 and 1 μM) and 10 μL of LPS solution (final concentration of 10 ng/mL) were added to 440 μl of cell suspension (3×10^5 cells/mL). Cells were incubated at 37° C. for 30 min, then centrifuged at 4° C., 400 rcf for 10 min. The experiment was carried out on blood samples taken from 4 different donors in duplicates. The effect of urolithins on the production of S100A8/A9 was determined using the immunochemical ELISA method (R&D Systems).
# The obtained results of experiments on in vitro models were analyzed using the Statistica 13 program (StatSoft, Inc., Tulsa, OK, USA) and presented as mean values±SEM. […]
# [3] = tested on: NHDF fibroblasts (human normal skin fibroblasts); settings: comparative studies by the inventors
# Protocol: NHDF fibroblasts (human normal skin fibroblasts) were cultured in the DMEM medium supplemented with 10% FBS and a mixture of antibiotics—penicillin and streptomycin at 37° C., 5% CO2. […] After incubation with the compounds, the cells were washed twice with warm medium. The effect on cell viability was assessed using a standard MTT test.
# mRNA for TNF-alpha = experiment: TNF-alpha mRNA expression in THP-1 derived macrophages (real time PCR); format: cell-based, human; settings: 40 μM; LPS stimulation; FIG. 14
# Protocol: Monocytes of the THP-1 line were cultured in RPMI 1640 medium supplemented with 10% FBS and 2 mM glutamine. For transformation of monocytes into macrophages, the cells were treated with 12.5 ng/mL PMA (phorbol 12-myristate 13-acetate) for 48 hours, then washed and incubated for 24 hours in a culture medium without PMA. After this time, urolithin A, urolithin B, iso-urolithin A and the corresponding glucuronides (GUA, GUB and GiUA) were added to the cells at a concentration of 40 μM. After 1 hour of incubation with the compounds, the cells were stimulated with LPS from Escherichia coli (10 ng/mL).
# To assess the level of TNF-alpha production, the cells were incubated for 6 hours, to assess the expression of mRNA for TNF-alpha, the cells were incubated for 24 hours, to assess the effect on ERK1/2 phosphorylation, the cells were incubated for 35 minutes.
# The level of TNF-alpha in the culture medium was determined using the immunochemical ELISA method (BD biosciences). Evaluation of the expression of mRNA for TNF-alpha was performed using real time PCR. After 24 hours of incubation, RNA was isolated using NucleoSpin RNA Clean-up (Macherey-Nagel). The amount and quality of isolated RNA was determined using 2100 Bioanalyzer (Agilent Technologies). The expression level of mRNA for TNF-α was determined using Brilliant II SYBR Green QPCR Kit and Aria Mx Real-Time PCR thermocycler (Agilent Technologies). The following were used as primers for TNF-alpha: forward: 5′-[…]-3′, reverse: 5′-[…]-3′. Beta-actin (ACTB) was used as the housekeeping gene; primer forward: 5′-[…]-3′, reverse: 5′-[…]-3′).
# The obtained results of experiments on in vitro models were analyzed using the Statistica 13 program (StatSoft, Inc., Tulsa, OK, USA) and presented as mean values±SEM. Statistical significance was set at P≤0.05. The results with established normal distribution in the D'Agostin and Pearson test were prepared using analysis of variance (ANOVA). Parametric post-hoc analysis was performed using Dunnett's test.
# [4] = tested on: carrageenan-induced paw edema in mice; settings: oral administration one hour after induction of edema, next 24 hours; cited from earlier work
smiles,measurement,setting,value
O=c1oc2cc(O)ccc2c2ccc(O)cc12 [urolithin A],"Ear edema, comparison of urolithin doses with each other","[1]; 0.2% vs 1%, p<0.05",more effective at a concentration of 1%
same,"Time profile of anti-edema effect, urolithin A vs. hydrocortisone","[1]; later treatment period (from day 12 to 28 of treatment), dose 0.2 and 1%, p<0.01",more effective in the later treatment period
same,Ear edema (ear thickness) after local therapy,"[1]; topical ointment in white petrolatum, urolithin A 0.2 and 1.0%, hydrocortisone 1%, urolithin A p<0.001, hydrocortisone p<0.01",reduced
same,Anti-inflammatory (ear edema) effect compared to hydrocortisone 1%,[1]; urolithin A 0.2% ointment,absence of significantly greater efficiency
same,Anti-inflammatory (ear edema) effect compared to hydrocortisone 1%,"[1]; urolithin A 1% ointment, p<0.05",significantly greater anti-inflammatory effect compared to hydrocortisone
same,"Ear edema reduction, urolithin vs. hydrocortisone (2-factor ANOVA)","[1]; urolithin A (both doses) vs. 1% hydrocortisone, p<0.05",stronger
same,Extracellular level of S100A8/A9 protein (calprotectin),[2],significant decrease
same,Antiproliferative activity on human skin fibroblast cells,[3],"neither urolithin A, nor 8-acetyl-urolithin A, nor 3-acetyl-urolithin A showed antiproliferative activity"
same,TNF-alpha mRNA expression in THP-1 derived macrophages,mRNA for TNF-alpha,inhibitory effect on TNF-alpha mRNA expression
same,Carrageenan-induced paw edema size,[4],significantly reduced its size
